Where “and” joins values, the source holds several entries; their conditions need not be identical. Equal values may be shown once. Inconclusive results are not listed.
Test system: BDF1 mice, colon carcinoma 38 sc, T/C %
Experiment: NCI In Vivo Anticancer Drug Screen. Data for tumor model Colon Carcinoma 38 (subcutaneous) in B6D2F1 (BDF1) mice
Conditions: endpoint: median tumor weight (est.), higher = larger tumour
Outline: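 Ratio of survival or tumor size, compound-treated animals relative to vehicle controls, in tumor-bearing mice.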

[1] = dose: 50.0 mg/kg/injection, schedule: Q07DX002 (ip), vehicle: saline with Tween-80
[2] = dose: 100.0 mg/kg/injection, schedule: Q07DX002 (ip), vehicle: saline with Tween-80
[3] = dose: 200.0 mg/kg/injection, schedule: Q07DX002 (ip), vehicle: saline with Tween-80
[4] = dose: 400.0 mg/kg/injection, schedule: Q07DX002 (ip), vehicle: saline with Tween-80

With `COc1ccc(C[C@H](N)C(=O)NC2C(CO)OC(n3cnc4c(N(C)C)ncnc43)C2O)cc1` (some centres not stated) the T/C (dose: 12.5 mg/kg/injection, schedule: Q07DX002 (ip), vehicle: saline) was 81 % of control, the T/C (dose: 24.0 mg/kg/injection, schedule: Q07DX002 (ip), vehicle: saline) was 79 % of control and 91 % of control and the T/C (dose: 25.0 mg/kg/injection, schedule: Q07DX002 (ip), vehicle: saline) was 86 % of control. For the same compound, the T/C (dose: 48.0 mg/kg/injection, schedule: Q07DX002 (ip), vehicle: saline) was 80 % of control and 82 % of control, the T/C (dose: 50.0 mg/kg/injection, schedule: Q07DX002 (ip), vehicle: saline) was 92 % of control and 106 % of control and the T/C (dose: 96.0 mg/kg/injection, schedule: Q07DX002 (ip), vehicle: saline) was 91 % of control and 108 % of control. The T/C (dose: 100.0 mg/kg/injection, schedule: Q07DX002 (ip), vehicle: saline) was 89 % of control and 94 % of control, the T/C (dose: 192.0 mg/kg/injection, schedule: Q07DX002 (ip), vehicle: saline) was 72 % of control and 93 % of control and the T/C (dose: 200.0 mg/kg/injection, schedule: Q07DX002 (ip), vehicle: saline) was 55 % of control and 64 % of control. For the same compound, the T/C (dose: 384.0 mg/kg/injection, schedule: Q07DX002 (ip), vehicle: saline) was 64 % of control and 84 % of control and the T/C (dose: 400.0 mg/kg/injection, schedule: Q07DX002 (ip), vehicle: saline) was 21 % of control.

With `CCN(CC)CCOC(=O)/C=C\c1cccc2c(=O)cc(-c3ccccc3)oc12` the T/C (dose: 100.0 mg/kg/injection, schedule: Q07DX002 (ip), vehicle: Klucel (hydroxypropylcellulose) (HPC)) was 102 % of control, the T/C (dose: 200.0 mg/kg/injection, schedule: Q07DX002 (ip), vehicle: Klucel (hydroxypropylcellulose) (HPC)) was 65 % of control and the T/C (dose: 400.0 mg/kg/injection, schedule: Q07DX002 (ip), vehicle: Klucel (hydroxypropylcellulose) (HPC)) was 52 % of control.

For `C1CCC2C[N-]CCC2C1.C1CCC2C[N-]CCC2C1.C1CCC2C[N-]CCC2C1.C1CCC2C[N-]CCC2C1.[Cl][Rh][Cl]` (configuration not stated), the T/C (dose: 1.0 mg/kg/injection, schedule: Q07DX003 (ip), vehicle: saline) was 107 % of control, the T/C (dose: 2.0 mg/kg/injection, schedule: Q07DX003 (ip), vehicle: saline) was 62 % of control and the T/C (dose: 4.0 mg/kg/injection, schedule: Q07DX003 (ip), vehicle: saline) was 82 % of control. The T/C (dose: 8.0 mg/kg/injection, schedule: Q07DX003 (ip), vehicle: saline) was 87 % of control and the T/C (dose: 16.0 mg/kg/injection, schedule: Q07DX003 (ip), vehicle: saline) was 78 % of control.

With `Cc1ncc([N+](=O)[O-])n1CCSC(N)=O` the T/C (dose: 12.5 mg/kg/injection, schedule: Q07DX003 (ip), vehicle: saline with Tween-80) was 111 % of control, the T/C (dose: 25.0 mg/kg/injection, schedule: Q07DX003 (ip), vehicle: saline with Tween-80) was 164 % of control and the T/C (dose: 100.0 mg/kg/injection, schedule: Q07DX003 (ip), vehicle: saline with Tween-80) was 108 % of control.

With `CCCCOCN(COCCCC)C12CC3CC(CC(C3)C1)C2` the T/C (dose: 25.0 mg/kg/injection, schedule: Q07DX002 (ip), vehicle: saline with Tween-80) was 93 % of control, the T/C [1] was 73 % of control and the T/C [2] was 120 % of control. For the same compound, the T/C [3] was 69 % of control.

For `C1OC1CO[C@@H]1CO[C@H]2[C@@H]1OC[C@H]2OCC1CO1` (some centres not stated), the T/C (dose: 12.5 mg/kg/injection, schedule: Q07DX003 (ip), vehicle: saline) was 47 % of control, the T/C (dose: 25.0 mg/kg/injection, schedule: Q07DX002 (ip), vehicle: suspension in saline) was 116 % of control and the T/C (dose: 25.0 mg/kg/injection, schedule: Q07DX003 (ip), vehicle: saline) was 82 % of control. For the same compound, the T/C (dose: 50.0 mg/kg/injection, schedule: Q07DX002 (ip), vehicle: suspension in saline) was 117 % of control, the T/C (dose: 50.0 mg/kg/injection, schedule: Q07DX003 (ip), vehicle: saline) was 83 % of control and the T/C (dose: 100.0 mg/kg/injection, schedule: Q07DX002 (ip), vehicle: suspension in saline) was 79 % of control. The T/C (dose: 200.0 mg/kg/injection, schedule: Q07DX002 (ip), vehicle: suspension in saline) was 98 % of control, the T/C (dose: 200.0 mg/kg/injection, schedule: Q07DX003 (ip), vehicle: saline) was 79 % of control and 94 % of control and the T/C (dose: 400.0 mg/kg/injection, schedule: Q07DX002 (ip), vehicle: suspension in saline) was 70 % of control.

In the case of `CCOC(=O)c1cn(C)c2c1C(O)=C(C(=O)OC)CC(=O)N2`, the T/C [1] is reported as 81 % of control, the T/C [2] is reported as 119 % of control and the T/C [4] is reported as 88 % of control. The T/C (dose: 800.0 mg/kg/injection, schedule: Q07DX002 (ip), vehicle: saline with Tween-80) was 97 % of control.

In the case of `CCOC(=O)C(C)(C)Oc1ccc(Cl)cc1`, the T/C (dose: 12.5 mg/kg/injection, schedule: Q07DX002 (ip), vehicle: saline with Tween-80) is reported as 60 % of control, the T/C [1] is reported as 94 % of control and 100 % of control and the T/C [3] is reported as 110 % of control. For the same compound, the T/C [4] was 86 % of control.

For `C=C(OC1C(C)=C2C(C1OC(=O)CCCCCCC)C(C)(OC(C)=O)CC(OC(=O)CCC)C1(O)C2OC(=O)C1(C)O)/C(C)=C/C` (configuration not stated), the T/C (dose: 0.21 mg/kg/injection, schedule: Q07DX002 (ip), vehicle: Klucel (hydroxypropylcellulose) (HPC)) was 35 % of control and the T/C (dose: 0.84 mg/kg/injection, schedule: Q07DX002 (ip), vehicle: Klucel (hydroxypropylcellulose) (HPC)) was 82 % of control and 86 % of control and 92 % of control.

In the case of `CC1(C)OCC(CO)(Nc2nc(N3CC3)nc(N3CC3)n2)CO1`, the T/C (dose: 1.25 mg/kg/injection, schedule: Q07DX002 (ip), vehicle: saline) is reported as 72 % of control, the T/C (dose: 1.25 mg/kg/injection, schedule: Q07DX003 (ip), vehicle: saline) is reported as 166 % of control and the T/C (dose: 2.5 mg/kg/injection, schedule: Q07DX002 (ip), vehicle: saline) is reported as 75 % of control. The T/C (dose: 2.5 mg/kg/injection, schedule: Q07DX003 (ip), vehicle: saline) was 111 % of control, the T/C (dose: 5.0 mg/kg/injection, schedule: Q07DX002 (ip), vehicle: saline) was 65 % of control and the T/C (dose: 5.0 mg/kg/injection, schedule: Q07DX003 (ip), vehicle: saline) was 49 % of control. For the same compound, the T/C (dose: 10.0 mg/kg/injection, schedule: Q07DX002 (ip), vehicle: saline) was 15 % of control.

Reference: PubChem BioAssay AID212 (DTP/NCI, 2004)
